Four compounds from patent US7279465B2, “Use of amphiphilic nucleoside phosphonoformic acid derivatives for the treatment of viral infectious diseases” (Eberhard-Karls-Universitaet, priority 2002, dated 2007) can be followed below.

The test system of series [1] is multiresistant HCMV strain (GCV/PFA/CDV-resistant). As to the kind of experiment: Modified cell-adapted plaque reduction assay (HFF cocultures), multiresistant HCMV strain. The series is classed as cell-based, human cytomegalovirus (HCMV). The conditions noted are these: for average plaque numbers: 1500 HCMV-infected HFF cells/microculture, multiresistant strain. From the text:
(§1) Cocultures of infected and uninfected human foreskin fibroblasts (HFFs) were used for this purpose.
(§2) The implementation of the assay was described for the first time in Prix, et al., “A simplified assay for screening of drug resistance of cell-associated cytomegalovirus strains,” Journal of Clinical Virology (1998) 11:29-37, and Prix, et al., “Comprehensive restriction analysis of the UL97 region allows early detection of ganciclovir-resistant human cytomegalovirus in an immunocompromised child,” Journal of Infectious Diseases (1999) 180:491-495, and is briefly described below.
(§3) HCMV primary isolates on HFF cells in tube culture were passaged on subconfluent monolayers of HFF grown in small cell culture flasks (25 cm^2), and cultured. When an approx. 20-40% cytopathic effect (CPE) had been reached, the cells were washed with phosphate-buffered saline (PBS) and the monolayer was removed by trypsinization. After the trypsin had been inactivated, the pellet was taken up in Eagle's minimal essential medium (MEM)-10% FCS (foetal calf serum) and subjected to mild filtration for the purpose of separating off cell aggregates.
(§4) In parallel, uninfected HFF cells were cultured on 175 cm^2 dishes, washed, trypsinized and, after further purification steps, taken up in MEM-10% FCS.
[…] In each case 100 μl of each of these dilution steps were pipetted in triplicate into a 96-well microtitre plate. In order to ensure that the cells adhered to the microtitre plate bottom, the cocultures were incubated for at least 4 h before the medium was carefully removed. […]
The primary antibody (anti-IE1-pp72, E13 clone, Paesel & Lorei, Germany), which is directed against the HCMV immediate early antigen (UL123) of HCMV, was then added. […] After the peroxidase/H2O2 substrate had been added, the HCMV immediate early antigen was detected, under a microscope, in the nuclei of the infected fibroblasts as a result of the in situ brown staining. […]
On the technique in general: In a plaque reduction assay, fewer plaques than in the control indicate reduced infectivity or spread.

Series [2] relates to GCV-resistant/PFA-sensitive HCMV strain. Put plainly: microbe, parasite or virus in culture. It counts as cell-based, human cytomegalovirus (HCMV). The conditions noted are these: for average plaque numbers/microculture: GCV-resistant, PFA/CDV-sensitive strain.
Description: as §1, §2, §3, §4
In order to prepare cocultures, the infected cells were mixed with the uninfected cells in the following manner: 2.5×10^4 uninfected cells/100 μl were mixed, in two different ratios, with 500 and 1000 infected cells/100 μl. In each case 100 μl of each of these dilution steps were pipetted in triplicate into a 96-well microtitre plate. In order to ensure that the cells adhered to the microtitre plate bottom, the cocultures were incubated for at least 4 h before the medium was carefully removed.
The cultures were then incubated for 4 days so as to enable the viruses from the infected single cells to spread in the form of plaque formation by infecting the neighbouring cells.
Following the 4-day incubation, the medium was carefully poured off and the microcultures were permeabilized, and fixed, with 200 μl of ice-cold (−20° C.) methanol. After 20 min, the methanol was removed and the cells were washed twice with PBS.
The primary antibody (anti-IE1-pp72, E13 clone, Paesel & Lorei, Germany), which is directed against the HCMV immediate early antigen (UL123) of HCMV, was then added. […] After the peroxidase/H2O2 substrate had been added, the HCMV immediate early antigen was detected, under a microscope, in the nuclei of the infected fibroblasts as a result of the in situ brown staining.
6.25 μM of the structurally identical, ethyl-esterified compound N4 were also included.
In this experiment, 500 HCMV-infected HFF cells/microculture were used.
For correctly evaluating the plates, the norm was applied that a plaque had to consist of a group of cells containing at least 10 individual cells in order to be included in the count.

In series [3] the test system is human prepuce fibroblasts. Put plainly: Cytotoxic effect in vitro towards fibroblasts. The series is classed as cell-based. As to the method: Since N3 was determined to have a cytotoxic effect in vitro towards human prepuce fibroblasts only at concentrations of >125 μM, adequate therapeutic breadth for in vivo use consequently also exists.
The subject of the next series is HCMV. Put plainly: Preliminary screening of antiviral effect in vitro. The series is classed as cell-based, human cytomegalovirus (HCMV). Particulars: compared with unesterified compound.

Values joined by “and” are separate entries in the source; they are usually repeats but may differ in a detail not shown here. Equal entries are not always repeated. Where two headings read alike, the source gives them in different places. Some results are limits rather than exact numbers.

“3′-azido-2′,3′-dideoxythymidylyl-(5′→2)-1-O-octadecyl-rac-glycerol-3-(hydroxycarbonyl)-phosphonate [N3]” showed an average plaque numbers in series [1] (N3 (6.25 μM recorded)) of 2.3. Further, the average plaque numbers/microculture in series [2] (6.25 μM N3, 500 HCMV-infected HFF cells/microculture) is 5.7 and 7.5. Besides, in series [2] (GCV-resistant strain, 1000 infected cells/microculture), the “ID50 lower than that for GCV (fold)” value is reported as “approx. 11 ×”. The “antiviral activity higher than that of PFA (fold)” value in series [2] (GCV-resistant/PFA-sensitive strain, 1000 infected HFF cells/microculture) is “approx. 40 ×”. Besides, the “concentration with cytotoxic effect in vitro” value in series [3] is greater than 125 µM.

`Nc1nc2c(ncn2COC(CO)CO)c(=O)[nH]1` [GCV, 9-[1,3-dihydroxy-2-propoxymethyl]guanine, reference compound] returned an average plaque numbers/microculture in series [2] (5 μM GCV, 500 HCMV-infected HFF cells/microculture) of 19.5. In addition, the IC50 in series [2] (Human betaherpesvirus 5, Table 1, GCVres/PFAsens/CDVsens strain, Niz = 1000 infected cells/microculture, read-out: ID50 (95% CI)) amounted to 14.3 µM.

In series [1] (PFA (300 μM recorded)), `O=C(O)P(=O)(O)O.[Na]` [PFA, sodium-phosphonoformic acid, reference compound] came in with an average plaque numbers of 20.5. In series [2] (300 μM PFA, 500 HCMV-infected HFF cells/microculture, negative control 37.9), this compound displayed a number of plaques of 5. In series [2] (Human betaherpesvirus 5, read-out: ID50 (95% CI)), the IC50 was 64.8 µM.

On to “ethyl 3′-azido-2′,3′-dideoxythymidylyl-(5′→2)-1-O-octadecyl-rac-glycerol-3-(hydroxycarbonyl)-phosphonate [N4]”, for which, in series [1] (multiresistant strains), the “antiviral activity against multiresistant strains” value is listed as “did not exhibit any antiviral activity”. Further, in the series with HCMV, the “antiviral effect in vitro” value is given as “markedly reduced antiviral effect”.
